Some test systems named below: SK-MEL-5 melanoma; UACC-257 melanoma; U251 CNS; SN12C renal; CAKI-1 renal; SK-OV-3 ovarian; A549 NSCLC; IGROV1 ovarian; COLO 205 colon; SF-268 CNS.
Common to all, as to assay: inhibition of tumour cell growth, NCI panel, 48 h

The values that follow come from PubChem BioAssay (NCI).

Structures are written as SMILES.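 Test compounds were applied to cells in 96-well plates for 48 hours at 5 doses. Abbreviation: GI50, concentration required for 50% inhibition of growth. Definition used: TGI = concentration required for complete inhibition of growth.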

For the molecule `Cn1c(Sc2ccc(-c3cccnc3)n2C)ccc1-c1cccnc1`, the TGI with SK-MEL-5 melanoma stood at 30.4 µM; in the test on UACC-257 melanoma, 29.1 µM; in the test with U251 CNS, 26.9 µM; in the test on SN12C renal, 39.6 µM; with CAKI-1 renal it was 36.5 µM; with SK-OV-3 ovarian, 60.9 µM. Moreover, the TGI worked out at 80.9 µM with A549 NSCLC, 31.9 µM in the test with IGROV1 ovarian, 38 µM in the test with COLO 205 colon and 23.7 µM with SF-268 CNS.
As for `NNc1ccccc1Cl`, the TGI in the test with SK-MEL-5 melanoma, with UACC-257 melanoma, with U251 CNS, in the test on SN12C renal, with CAKI-1 renal and in the test with SK-OV-3 ovarian was above 100 µM in each case. The TGI with A549 NSCLC, with IGROV1 ovarian, in the test on COLO 205 colon and with SF-268 CNS was above 100 µM each time.
Turning to `Nc1nnc(N)n1NC(=O)C(=O)Nc1ccc([N+](=O)[O-])cc1`, the TGI in the test on SK-MEL-5 melanoma, in the test on UACC-257 melanoma, in the test on U251 CNS, with SN12C renal, in the test with CAKI-1 renal and in the test with SK-OV-3 ovarian was above 100 µM throughout. The TGI in the test on A549 NSCLC, in the test with IGROV1 ovarian, in the test on COLO 205 colon and in the test on SF-268 CNS was above 100 µM each time.
`COc1cc(S(=O)(=O)Nc2nc(-c3ccc(N)cc3)cs2)ccc1Cl`: the TGI with SK-MEL-5 melanoma, in the test with UACC-257 melanoma, in the test on U251 CNS, in the test with SN12C renal, in the test on CAKI-1 renal and in the test with SK-OV-3 ovarian was above 100 µM in each case. For the same molecule, the TGI in the test on A549 NSCLC, in the test with IGROV1 ovarian, with COLO 205 colon and with SF-268 CNS was above 100 µM throughout.
On to `COc1cc(O)c2c(c1)C(=O)c1cc(C)cc(O)c1C2=O`, for which the TGI in the test on SK-MEL-5 melanoma, in the test with UACC-257 melanoma, in the test on U251 CNS, in the test on SN12C renal, in the test with CAKI-1 renal and in the test with SK-OV-3 ovarian was above 100 µM throughout. Moreover, the TGI with A549 NSCLC, in the test on IGROV1 ovarian, in the test with COLO 205 colon and in the test with SF-268 CNS was above 100 µM in each case.
Turning to `Cc1cc(=O)oc2c1cc(OCC(=O)OCCN1CCCCC1)c1occ(C)c12`, the TGI in the test with SK-MEL-5 melanoma, in the test on UACC-257 melanoma, in the test with U251 CNS, with SN12C renal, with CAKI-1 renal and with A549 NSCLC was above 100 µM throughout.
Take `CO[C@@H]1C=C[C@@]23c4cc5c(cc4C(O)N(CC2O)C3C1)OCO5` (some centres undefined): the TGI with SK-MEL-5 melanoma was 6.01 µM; in the test with UACC-257 melanoma, 5.9 µM; in the test on U251 CNS, 16.6 µM; in the test with SN12C renal, above 100 µM; with CAKI-1 renal it was 27.2 µM; with SK-OV-3 ovarian, above 100 µM. For the same molecule, the TGI in the test on A549 NSCLC is 39.5 µM; in the test with IGROV1 ovarian, 68.9 µM; in the test on COLO 205 colon, 14.2 µM; in the test on SF-268 CNS it was above 100 µM.
`COc1ccc(CC2c3cc(OC)c(OC)c(OC)c3CC[N+]2(C)C)cc1Oc1ccc(CC2c3cc4c(c(OC)c3CCN2C)OCO4)cc1` (centres undefined): the TGI in the test on SK-MEL-5 melanoma, in the test with UACC-257 melanoma, in the test with U251 CNS, with SN12C renal, in the test on CAKI-1 renal and with SK-OV-3 ovarian was above 100 µM throughout. Further, the TGI in the test with A549 NSCLC, in the test with IGROV1 ovarian, in the test on COLO 205 colon and in the test with SF-268 CNS was above 100 µM each time.
For the molecule `CC(C)=CCC[C@](C)(O[C@@H]1O[C@H](CO)[C@@H](O)[C@H](O)[C@H]1O)[C@H]1CC[C@]2(C)[C@@H]1[C@H](O)C[C@@H]1[C@@]3(C)CC[C@H](O)C(C)(C)[C@@H]3[C@@H](O[C@@H]3O[C@H](CO)[C@@H](O)[C@H](O)[C@H]3O)C[C@]12C`, the TGI in the test with SK-MEL-5 melanoma, in the test on UACC-257 melanoma, in the test on U251 CNS, in the test with SN12C renal, in the test with CAKI-1 renal and with SK-OV-3 ovarian was above 100 µM each time. Moreover, the TGI with A549 NSCLC, in the test with IGROV1 ovarian, with COLO 205 colon and in the test with SF-268 CNS was above 100 µM throughout.
`O=C1C[C@@H](Sc2ccccc2)C2(OCCO2)[C@H]2ON3CCC[C@@H]3[C@@H]12`: the TGI in the test on UACC-257 melanoma came to 29.3 µM; in the test on U251 CNS, 18 µM; in the test with SN12C renal, 7.52 µM; with CAKI-1 renal, 15.9 µM; with SK-OV-3 ovarian, 27.9 µM; in the test with A549 NSCLC it was 26.3 µM. For the same molecule, the TGI was 4.87 µM in the test on IGROV1 ovarian, 6.32 µM with COLO 205 colon and 12.1 µM in the test with SF-268 CNS.
Regarding `Fc1ccc(-c2nnc3sc(COc4ccccc4Cl)nn23)cc1Cl`, the GI50 in the test on SK-MEL-5 melanoma is 23.4 µM; with UACC-257 melanoma, 46.2 µM; in the test with U251 CNS it was 24.9 µM; with SN12C renal, 31.9 µM; in the test with CAKI-1 renal, 76.6 µM; with SK-OV-3 ovarian it was 93.3 µM. Further, the GI50 with A549 NSCLC was 41.1 µM; in the test with IGROV1 ovarian, 17.7 µM; in the test on COLO 205 colon, 43.7 µM; in the test on SF-268 CNS, 41.9 µM. Also, the TGI was 69.1 µM in the test on SK-MEL-5 melanoma; above 100 µM in the test with UACC-257 melanoma; 67.2 µM with U251 CNS; above 100 µM in the test with SN12C renal; above 100 µM with CAKI-1 renal; above 100 µM in the test on SK-OV-3 ovarian. Also, the TGI in the test on A549 NSCLC is above 100 µM; in the test on IGROV1 ovarian, 62.8 µM; in the test on COLO 205 colon, above 100 µM; in the test on SF-268 CNS, above 100 µM.
As for `O=C(O)C1=NNC(C(=O)O)=NN1`, the TGI in the test with SK-MEL-5 melanoma, in the test with UACC-257 melanoma, in the test on U251 CNS, in the test with SN12C renal, in the test with CAKI-1 renal and with SK-OV-3 ovarian was above 100 µM throughout. For the same molecule, the TGI with A549 NSCLC, in the test on IGROV1 ovarian, in the test on COLO 205 colon and in the test on SF-268 CNS was above 100 µM in each case.
For the molecule `COc1ccc([C@H]2C=C(c3cc(F)c(Cl)cc3Cl)NC(=S)N2)cc1`, the TGI was 27.2 µM in the test with SK-MEL-5 melanoma; 76.2 µM in the test on UACC-257 melanoma; 95.8 µM in the test with U251 CNS; 57.1 µM in the test on SN12C renal; above 100 µM with CAKI-1 renal; above 100 µM with SK-OV-3 ovarian. Besides, the TGI is above 100 µM in the test with A549 NSCLC, above 100 µM with IGROV1 ovarian, 48.6 µM with COLO 205 colon and above 100 µM with SF-268 CNS.
With `NC(=O)Nc1cc(O)ccc1N=Nc1ccc(S(=O)(=O)Nc2ccccn2)cc1`, the TGI in the test with SK-MEL-5 melanoma, in the test with UACC-257 melanoma, in the test with U251 CNS, in the test with SN12C renal, in the test with CAKI-1 renal and in the test on SK-OV-3 ovarian was above 100 µM in each case. Further, the TGI with A549 NSCLC, with IGROV1 ovarian, with COLO 205 colon and in the test with SF-268 CNS was above 100 µM in each case.
As for `Cc1cc(N(CCCCl)CCCCl)ccc1C=Nc1cccc(Cl)c1`, the TGI with SK-MEL-5 melanoma amounted to 27.4 µM; in the test on UACC-257 melanoma, 20.2 µM; with U251 CNS, 32.2 µM; with SN12C renal it was 37.1 µM; in the test with SK-OV-3 ovarian it was 61.7 µM; in the test on A549 NSCLC, 24.7 µM. The TGI in the test on IGROV1 ovarian was found to be 35 µM; with COLO 205 colon, 23.6 µM; in the test on SF-268 CNS, 48.4 µM.
In the case of `O=c1cc(O)c2ccccc2o1`, the TGI in the test on SK-MEL-5 melanoma, in the test on UACC-257 melanoma, with U251 CNS, in the test on SN12C renal, with CAKI-1 renal and in the test on A549 NSCLC was above 100 µM each time. Besides, the TGI in the test with IGROV1 ovarian, in the test with COLO 205 colon and in the test with SF-268 CNS was above 100 µM in each case.
On to `CCCCCCCCCCCCCCCCOCC(COP(=O)([O-])OCC[n+]1ccc(N(C)C)cc1)OCC` (centres undefined), for which the TGI was 31.6 µM in the test on SK-MEL-5 melanoma; 25.6 µM in the test on U251 CNS; 34.6 µM in the test on SN12C renal; 30.4 µM with A549 NSCLC; 33.8 µM in the test with IGROV1 ovarian; 26.5 µM in the test with COLO 205 colon. The molecule further had a TGI with SF-268 CNS of 25.7 µM.
Consider `COc1ccc(OC)c(C#Cc2ccc(OC)c(C(=O)NCCc3ccc(F)cc3)c2)c1`, for which the TGI in the test with SK-MEL-5 melanoma, with UACC-257 melanoma, with U251 CNS, with SN12C renal, in the test on CAKI-1 renal and in the test on A549 NSCLC was above 100 µM each time. The TGI in the test with IGROV1 ovarian, in the test with COLO 205 colon and in the test with SF-268 CNS was above 100 µM in each case. Besides, the GI50 in the test with SN12C renal was above 100 µM.
Turning to `COc1c(Cl)cc(S(=O)O)cc1Cl`, the TGI with UACC-257 melanoma, in the test with U251 CNS, in the test on SN12C renal, in the test with SK-OV-3 ovarian and with SF-268 CNS was above 100 µM throughout.
Regarding `O=C(Nc1nnc(-c2c(Cl)c(Cl)c(Cl)c(Cl)c2-c2nc3cc(C(=O)c4ccccc4)ccc3[nH]2)o1)c1ccccc1`, the TGI is 18.5 µM in the test on SK-MEL-5 melanoma; 85.7 µM with UACC-257 melanoma; 26.5 µM in the test with U251 CNS; 31.3 µM with SN12C renal; above 100 µM in the test with CAKI-1 renal; 52.2 µM with SK-OV-3 ovarian. Also, the figures for the TGI in the test with A549 NSCLC, with IGROV1 ovarian and with COLO 205 colon were 31.9 µM, 42 µM and 24.5 µM, respectively.
